| SMILES | melting point |
| --- | --- |
| COc1cc2nc(C(=O)O)c(=O)n(C)c2cc1OC | 261 °C |
| CCN(CC)c1c(C(=O)O)ccc(OC)c1OC | 57 to 62 °C |
| CCCS(=O)C1(S(=O)(=O)NC(C)(C)C)C=CC=CN1 (configuration not stated) | 138 to 140 °C |
| CC(=O)NC(=S)NCCC1CC2c3cccc4[nH]cc(c34)CC2N(C)C1 (configuration not stated) | 213 to 215 °C |
| CCOC(=O)c1c(N)c2cccnc2n(C2CCCCC2)c1=O | 172 to 175 °C |
| CCC(=S)N1CCC[C@H]1C(=O)O | 123 to 124 °C |
| CCOc1cc2cc(CO)c(CO)c(-c3ccncc3)c2cc1OCC | 159 to 161 °C |
| CN(C)S(=O)(=O)c1cccc2cccc(O)c12 | 95 °C |
| CCCN(CCC)C(=O)n1ccc(S(=O)(=O)c2c(C)cc(C)cc2C)n1 | 64 to 65 °C |
| COC1CC2C3CCC4=CC(=O)CCC4(C)C3(F)C(O)CC2(C)C1(OC(C)=O)C(=O)CCl (configuration not stated) | 243 to 245 °C |
| CCOC(=O)Cc1cnc(NS(C)(=O)=O)s1 | 153 to 155 °C |
| CN1CCN(c2cccc3c2CC(=O)CC3)CC1 | > 85 °C |
| O=C1c2ccccc2N(N2CCOCC2)C2=NCCN12 | 250 to 251 °C |
| N#Cc1cc(C(=O)c2ccc(C(F)(F)F)cc2)cc(O)c1O | 204 to 206 °C |
| Cn1c(C(F)(F)F)cc(=O)n(-c2cc(OC(=O)C3CCCCC3)c(Cl)cc2F)c1=O | 97 to 101 °C |
| CCNC(C)c1cc(S(N)(=O)=O)sc1S(C)(=O)=O (configuration not stated) | 164 to 166 °C |
| CCOC(=O)C1=C(C)NC(N)=C(C(=O)OCCOC)C1c1cccc([N+](=O)[O-])c1 (configuration not stated) | 174 °C |
| CC(=O)N(C#N)C/C=C\CN(C#N)C(C)=O | 73.8 to 75.2 °C |
| CCCCCCC(O)C(=O)NCCS (configuration not stated) | 83 to 84 °C |
| CN1Cc2c(Cl)ncn2-c2ccc(F)cc2C1=O | 217 to 218 °C |

| SMILES | melting point |
| --- | --- |
| Nc1cc(Br)cc(OCCF)c1 | 48.5 to 50 °C |
| CCOC(=O)C(C(=O)OCC)c1c(Cl)cnc2c([N+](=O)[O-])cccc12 | 102 °C |
| CCCn1nc2c(N)nc3ccccc3c2c1CCNC(=O)C1CC1 | 215 to 217 °C |
| O=C(NC1CCN(CCc2ccccc2)CC1)c1ccccc1 | 164 to 167 °C |
| COc1ccc(CC(C)(N)C(=O)O)cc1OC (configuration not stated) | 244 to 246 °C |
| C=CCc1cc(C(=O)OCC)ccc1OCC1(O)CN2CCC1CC2 (configuration not stated) | 143 to 145 °C |
| CCCCN1C(=O)c2c(c(C)nn2C)Nc2ncccc21 | 144 to 146 °C |
| COC(=O)CN1CC([N+](=O)[O-])=C(Cc2ccc(C(C)(C)C)cc2)C=C1C | 135 °C |
| NS(=O)(=O)c1cc(Cl)c(Cl)cc1OC(F)(F)F | 181 to 185 °C |
| Cc1cc(C)cc(Oc2nc(Cl)nc(Cl)c2C(C)C)c1 | 107 to 108 °C |
| COc1ccc2cccc3c2c1CCC3CNC(=O)C1CC1 (configuration not stated) | 119 °C |
| CCN(CC)Cc1ccc2c(c1)-c1[nH]nc(-c3ccsc3)c1C2 | 157 to 158 °C |
| C(=C(c1ccccc1)N1CCCCC1)C1=NCCC1 | 123 to 124 °C |
| O=[N+]([O-])c1ccc(-c2ccc([N+](=O)[O-])c(Cl)c2)cc1Cl | 221 to 222 °C |
| COC(=O)C1=C(C(=O)OC)C2(c3ccc(Cl)cc3)C=CC1O2 (configuration not stated) | 84 °C |
| OCc1cc2cc3c(cc2nc1I)OCCO3 | 178 to 180 °C |
| O=C1OC(=O)c2c1cccc2C(Cl)(Cl)Cl | 121 to 124 °C |
| CCOC(=O)C(=Cc1ccc(OC)cc1OC)C(=O)OCC | 40 to 41 °C |
| COCc1nc2c(N)nc3cc(CCC(N)=O)ccc3c2n1CC(C)(C)O | 228 to 230 °C |
| Cc1cc(C)c(S(=O)(=O)N(C)C)cc1[N+](=O)[O-] | 113 °C |

| SMILES | melting point |
| --- | --- |
| O=C1CCC(c2ccc(C3CCCC3)cc2)=NN1 | 191 to 192 °C |
| COCCCNCc1noc([C@H](CCCC2CCCCC2)CC(=O)NO)n1 | 60 °C |
| CC(C(=O)O)c1ccc2c(c1)Cc1cc(F)ccc1S2 (configuration not stated) | 140 to 145 °C |
| CC(=O)C1=CCC2C3CCC4=CC(=O)CCC4(C)C3CCC12C (configuration not stated) | 185 to 190 °C |
| N=C(N)c1ccc2cc(OC(=O)C3CC3)ccc2c1 | 214 to 217 °C |
| CCc1cc(-c2nc(C)c(-c3ccnc(Nc4ccc(CNC(C)=O)cc4)n3)s2)ccn1 | 224 to 225 °C |
| NC(=O)c1sc2nc(N3CCC(NCC(O)c4ccccc4F)CC3)cc(C(F)(F)F)c2c1N (configuration not stated) | 192 to 194 °C |
| CC(C)(C)c1ccc2nc(N3CCN(c4ncccc4C(F)(F)F)CC3)[nH]c2c1 | 247 to 249 °C |
| Cc1csc(N2CCN(Cc3ccc(C(F)(F)F)cc3)C2=O)n1 | 102 to 103 °C |
| COc1ccc(N2CCN(c3c(C)c(C)c4c(c3C)CC(C)(C)O4)CC2)cc1C | 137 to 141 °C |
| CC(=O)N1CCC(C(=O)c2ccc(F)cc2F)CC1 | 97 °C |
| COc1ccc(C2(C#N)CCC(=C3SCCCS3)CC2)cc1OC1CCCC1 (configuration not stated) | 115 to 116 °C |
| CC(=O)NC(Cc1csc2ccccc12)C(=O)CCc1cc(C(F)(F)F)cc(C(F)(F)F)c1 (configuration not stated) | 83 to 84 °C |
| Cn1c(C(F)(F)F)cc(=O)n(-c2c(F)cc(Cl)c3cc(C=O)oc23)c1=O | 180 to 183 °C |
| O=Cc1cn(CCCCl)c2ccc(Cl)cc12 | 107 to 108 °C |
| CCOC(=O)C1CCc2c(sc3nc(CCl)c(Cl)c(-c4ccc(OC)cc4)c23)C1 (configuration not stated) | 113 to 114 °C |
| CC1(C(=O)Nc2ccc(OCC3CC3)c(C(F)(F)F)c2)CC1 | 84 to 85 °C |
| CCOc1ccc(F)c(N2Cc3cnc(NCCCCN(CC)CC)nc3N(C3CCCC3)C2=O)c1F | 129 to 130 °C |
| C=C(C)COc1cc2c(c(C)c1C)N(C=O)CC2 | 81 to 83 °C |
| COCC(=O)N[C@H]1CC[C@H](CCN2CCN(c3nccc4c3CCO4)CC2)CC1 | 170 °C |

Continued, values first:

| melting point | SMILES |
| --- | --- |
| 168 to 170 °C | Oc1ccc(Nc2cnc3cnc(-c4ccc(O)cc4)nc3c2)cc1 |
| 260 to 261 °C | O=C(O)c1ccc(-c2cc(=O)n(-c3ccccc3)s2)cc1 |
| 158 to 159 °C | COC(=O)C(C)(C)n1c(=O)[nH]c2ccccc2c1=O |
| 231 to 233 °C | CCn1cc(C(=O)O)c(=O)c2cc(F)c(N3CCN(S(=O)(=O)c4ccc(Cl)cc4)CC3)c(F)c21 |
| 49.5 to 50.5 °C | Cn1nc(OCc2ccccc2)cc1C=O |
| 175 °C | Cc1cc(OS(=O)(=O)C(F)(F)F)ccc1-c1cc(C(F)(F)F)nn1-c1ccc(S(C)(=O)=O)cc1 |
| 108 to 110 °C | COc1ccc(C=Cc2ccc3cccc(O)c3n2)cc1 |
| 94 to 97 °C | CC(=O)c1ccc(OCc2ccccc2)c(CS(C)(=O)=O)c1 |
| 189 to 190 °C | CO/C(=C\C=C\c1cc2ccccc2[nH]1)C(=O)O |
| 79 to 80 °C | CC[C@H](C)C(OCc1ccccc1)[C@H]1[C@H]([N+](=O)[O-])[C@@H](c2cccs2)N[C@@H]1C(=O)NCCC(=O)O (some centres not stated) |
| 226 to 228 °C | CN1c2ccccc2-c2nc3ccc(Cl)cc3c3cccc1c23 |
| 121 to 122 °C | Nc1cccc2c3c([nH]c12)C=C(NC(=O)c1ccc(F)cc1)C=CC3 |
| 47 to 48 °C | CC(O)CCCCCc1ccc(-c2ccccc2)cc1 (configuration not stated) |
| 182 to 184 °C | CCOc1c(N)cc(-c2cccc3ccccc23)c2nc(C(=O)O)ccc12 |
| 200 to 202 °C | O=c1[nH]c(=O)n(C2CC(O)C(COC3(c4ccccc4)c4ccccc4Oc4ccccc43)O2)cc1I (configuration not stated) |
| 204 to 205 °C | Cc1c(C)c(N2Cc3ccccc3C2)c(C)c2c1OC(C)(C)C2c1ccc(F)cc1 (configuration not stated) |
| 221 °C | COC(=O)COc1ccc(Cn2c(-c3ccc(C(F)(F)F)cc3)c(C)c3cc(OCc4ccccc4)ccc32)cc1 |
| 162 °C | COc1ccccc1CC(=O)N1C[C@H]2C[C@H](CO)C[C@](O)(c3ccccc3OC)[C@H]2C1 (racemic) |
| 194 °C | NC1=CC(N)=NCN1C(=O)OCc1ccccc1 |
| 225 to 227 °C | NC(=O)COc1ccc(CN2C(=O)C3(COc4cc5c(cc43)OCCO5)c3ccccc32)cc1 (configuration not stated) |
| 106 to 108 °C | O=C1c2ccccc2C(=O)N1Cc1ccc(OCCCCc2ccccc2)cc1 |

| melting point | SMILES |
| --- | --- |
| 181 to 185 °C | COc1cc(C)nc(NC(=O)NS(=O)(=O)c2cccc3cccnc23)n1 |
| 234 to 239 °C | Cn1c(=O)c(-c2ccc(Cl)cc2Cl)cc2c3cc(-c4nc(CC(=O)O)cs4)ccc3n(C)c21 |
| 101 to 102 °C | CC1CCC(Nc2nccc(Oc3ccc(NC(=O)c4cc(F)cc(N5CCCCC5)c4)c4ccccc34)n2)CC1 (configuration not stated) |
| 137 to 139 °C | CCOC(=O)C1[C@@H]2[C@@H](O)[C@@H]3O[C@H](c4ccccc4)OC[C@H]3O[C@H]12 (some centres not stated) |
| 128 °C | O/C(=C\c1nc2ccccc2c2nccn12)c1cccs1 |
| 200 to 202 °C | Cn1cc(CCN2C(=O)c3ccccc3C2=O)c2cc(CC(N)=O)ccc21 |
| 186 to 187 °C | Cc1nc(-n2ccnc(C)c2=O)sc1C(=O)NCc1ccccc1 |
| 160 to 161 °C | O=C(O)CCc1cc(-c2ccccc2)nn1Cc1ccc(Cl)cc1Cl |
| 69 to 72 °C | O=C1CCCCC1(CCCCCOc1ccccc1)c1ccccc1 (configuration not stated) |
| 82 to 85 °C | COc1cnn(-c2cccc(COc3ccccc3)c2)c(=O)c1OC |
| 214 °C | O=C1Nc2ccc(Cl)cc2C1(O)c1ccccc1OC(F)(F)F (configuration not stated) |
| 202 to 203 °C | O=[N+]([O-])c1ccc(-c2noc(-c3ccccn3)n2)cc1 |
| 221 to 223 °C | CC[C@@H](C)[C@@H]1NC(=O)OC1(c1ccccc1)c1ccccc1 |
| 220 to 224 °C | CN1CCN(CNC(=O)c2cccc(Nc3nccc(-c4cccnc4)n3)c2)CC1 |
| 140 to 143 °C | CN(C)c1ccccc1CS(=O)c1nccn1-c1ccc(N)cn1 (configuration not stated) |
| 118 to 119 °C | O=C(CNC(=O)c1ccccc1)c1ccsc1 |
| 248 to 250 °C | CC1(C)Oc2ccc(OC(F)(F)F)cc2[C@@H](N2Cc3cccnc3C2=O)[C@@H]1O (relative stereo) |
| 48 to 50 °C | Cc1cn(Cc2ccccc2)c(=O)n(CCCCl)c1=O |
| 138 to 147 °C | NCC(O)COc1ccc(-c2ccccc2)cc1 (configuration not stated) |
| 153 to 155 °C | COC(=O)c1cc(N2CCN([C@H]3CC[C@@H](c4cn(C)c5ccc(C#N)cc54)CC3)CC2)c2ncccc2c1 |
| 176 to 178 °C | CCCOc1ccc(CNC=C2C(=O)N(O)C(=O)c3ccccc32)cc1O |
